The subject of one experiment is BXPC-3. As to the kind of experiment: Antiproliferative activity against human BXPC-3 cells assessed as cell growth inhibition. It is filed as functional, cell-based.
For another experiment, the system named is Huh-7. Description: Antiproliferative activity against human Huh-7 cells assessed as cell growth inhibition. Format: functional, cell-based.
The subject of another experiment is HepG2. As to the kind of experiment: Antiproliferative activity against human HepG2 cells assessed as cell growth inhibition. It is filed as functional, cell-based.
For another experiment, the system named is A549. As to the kind of experiment: Antiproliferative activity against human A549 cells assessed as cell growth inhibition. Format: functional, cell-based.
Experiment [1] has as its target Protein cereblon/Protein deacetylase HDAC6 (Homo sapiens, UniProt Q9UBN7+Q96SW2). As to the kind of experiment: Protac activity at CRBN/HDAC6 in human MM1.S cells incubated for 5 hrs by ELISA analysis. Format: cell-based. For orientation: In an ELISA, binding on a coated surface is turned into a signal by an enzyme label.
Experiment [2] addresses RAC-gamma serine/threonine-protein kinase (Homo sapiens, UniProt Q9Y243). Description: Inhibition of Akt3 (unknown origin).
Experiment [3] addresses RAC-alpha serine/threonine-protein kinase (Homo sapiens, UniProt P31749). Description: Inhibition of Akt1 (unknown origin).
In experiment [4] the target is von Hippel-Lindau disease tumor suppressor/Tyrosine-protein kinase BTK (Homo sapiens, UniProt Q06187+P40337). Description: Protac activity at VHL/BTK in human NAMALVA cells incubated for 24 hrs by immunoblotting method. It is filed as cell-based.
Experiment [5] addresses von Hippel-Lindau disease tumor suppressor/Tyrosine-protein kinase BTK (Homo sapiens, UniProt Q06187+P40337, C481S). As to the kind of experiment: Protac activity at VHL/BTK C481S mutant in human NAMALVA cells incubated for 24 hrs by immunoblotting method. It is filed as cell-based.
The target of experiment [6] is Protein cereblon/Retinal rod rhodopsin-sensitive cGMP 3',5'-cyclic phosphodiesterase subunit delta (Homo sapiens) (UniProt O43924+Q96SW2). Description: Protac activity at CRBN/PDE6D in human Jurkat cells at […] incubated for 24 hrs by immunoblotting analysis relative to control. Format: cell-based.
Chain of Protein cereblon/Retinal rod rhodopsin-sensitive cGMP 3',5'-cyclic phosphodiesterase subunit delta (Homo sapiens) (O43924 whole entry, looked up): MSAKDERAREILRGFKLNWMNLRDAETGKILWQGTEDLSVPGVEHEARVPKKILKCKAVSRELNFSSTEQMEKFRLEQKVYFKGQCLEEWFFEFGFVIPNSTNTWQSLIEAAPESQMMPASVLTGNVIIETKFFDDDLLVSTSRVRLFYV
Chain of Protein cereblon/Retinal rod rhodopsin-sensitive cGMP 3',5'-cyclic phosphodiesterase subunit delta (Homo sapiens) (Q96SW2 whole entry, looked up): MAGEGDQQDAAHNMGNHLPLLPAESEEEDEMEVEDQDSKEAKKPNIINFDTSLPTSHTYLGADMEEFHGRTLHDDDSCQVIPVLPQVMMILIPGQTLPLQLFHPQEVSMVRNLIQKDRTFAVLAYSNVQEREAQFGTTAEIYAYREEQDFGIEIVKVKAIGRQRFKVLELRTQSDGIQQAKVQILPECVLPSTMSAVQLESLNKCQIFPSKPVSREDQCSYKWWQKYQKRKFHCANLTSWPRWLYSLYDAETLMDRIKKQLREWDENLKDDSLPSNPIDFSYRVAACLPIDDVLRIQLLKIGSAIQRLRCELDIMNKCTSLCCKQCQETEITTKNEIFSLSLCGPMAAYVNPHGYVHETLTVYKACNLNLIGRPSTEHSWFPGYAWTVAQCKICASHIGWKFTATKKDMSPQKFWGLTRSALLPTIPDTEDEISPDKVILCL
Experiment [7] has as its target Protein cereblon/Protein deacetylase HDAC6 (Homo sapiens, UniProt Q96SW2+Q9UBN7). Description: Protac activity at CRBN/HDAC6 in human MM1.S cells incubated for 24 hrs by Immunoblotting analysis. It is filed as cell-based. On the technique in general: A western blot detects proteins with antibodies after separation by electrophoresis.
The next experiment relates to PC-3. As to the kind of experiment: Antiproliferative activity against human PC-3 cells assessed as inhibition of cell growth. It is filed as functional, cell-based.
In experiment [8] the target is T1, Protein cereblon/Tyrosine-protein kinase BTK (Homo sapiens, UniProt Q06187+Q96SW2). Description: Protac activity at CRBN/BTK in human Ramos cells incubated for 24 hrs by immunoblotting method. It is filed as cell-based.
Target sequence in this assay (Q06187 whole entry): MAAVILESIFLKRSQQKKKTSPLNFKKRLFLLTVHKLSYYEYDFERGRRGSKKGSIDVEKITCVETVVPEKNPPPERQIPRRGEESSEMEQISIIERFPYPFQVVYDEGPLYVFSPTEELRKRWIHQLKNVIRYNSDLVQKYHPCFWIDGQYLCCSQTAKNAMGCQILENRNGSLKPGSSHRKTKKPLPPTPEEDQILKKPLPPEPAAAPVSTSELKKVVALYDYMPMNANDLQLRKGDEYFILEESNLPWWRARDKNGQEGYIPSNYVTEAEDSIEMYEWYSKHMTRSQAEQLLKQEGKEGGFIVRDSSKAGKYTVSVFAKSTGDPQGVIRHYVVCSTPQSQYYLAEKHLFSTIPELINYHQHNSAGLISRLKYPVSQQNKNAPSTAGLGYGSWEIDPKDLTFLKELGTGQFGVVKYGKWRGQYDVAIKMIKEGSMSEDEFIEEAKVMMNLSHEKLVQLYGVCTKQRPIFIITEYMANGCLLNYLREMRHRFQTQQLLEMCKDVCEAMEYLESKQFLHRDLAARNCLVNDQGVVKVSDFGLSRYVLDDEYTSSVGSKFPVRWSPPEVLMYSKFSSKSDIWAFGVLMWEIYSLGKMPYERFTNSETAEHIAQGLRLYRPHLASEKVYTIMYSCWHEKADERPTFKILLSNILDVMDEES
Target sequence in this assay (Q96SW2 whole entry): as the sequence (Q96SW2 whole entry, looked up) above
Experiment [9] concerns the target Protein cereblon/Cyclin-dependent kinase 9 (Homo sapiens) (UniProt P50750+Q96SW2). As to the kind of experiment: Protac activity at CRBN/CDK9 in human HCT-116 cells at 20 uM relative to control. Format: cell-based.
The target in experiment [10] is T1, Protein cereblon/Tyrosine-protein kinase BTK. Description: Protac activity at CRBN/BTK in human MINO cells relative to control. It is filed as cell-based.
Experiment [11] has the same target. Description: Protac activity at CRBN/BTK in human MINO cells. It is filed as cell-based.
Target sequence in this assay (Q06187 whole entry): as the sequence (Q06187 whole entry) above
Target sequence in this assay (Q96SW2 whole entry): as the sequence (Q96SW2 whole entry, looked up) above
Experiment [12] has the same target. As to the kind of experiment: Protac activity at CRBN/BTK in human MOLM-14 cells at 0.2 uM relative to control. It is filed as cell-based.
Target sequence in this assay (Q06187 2-659 limits assumed): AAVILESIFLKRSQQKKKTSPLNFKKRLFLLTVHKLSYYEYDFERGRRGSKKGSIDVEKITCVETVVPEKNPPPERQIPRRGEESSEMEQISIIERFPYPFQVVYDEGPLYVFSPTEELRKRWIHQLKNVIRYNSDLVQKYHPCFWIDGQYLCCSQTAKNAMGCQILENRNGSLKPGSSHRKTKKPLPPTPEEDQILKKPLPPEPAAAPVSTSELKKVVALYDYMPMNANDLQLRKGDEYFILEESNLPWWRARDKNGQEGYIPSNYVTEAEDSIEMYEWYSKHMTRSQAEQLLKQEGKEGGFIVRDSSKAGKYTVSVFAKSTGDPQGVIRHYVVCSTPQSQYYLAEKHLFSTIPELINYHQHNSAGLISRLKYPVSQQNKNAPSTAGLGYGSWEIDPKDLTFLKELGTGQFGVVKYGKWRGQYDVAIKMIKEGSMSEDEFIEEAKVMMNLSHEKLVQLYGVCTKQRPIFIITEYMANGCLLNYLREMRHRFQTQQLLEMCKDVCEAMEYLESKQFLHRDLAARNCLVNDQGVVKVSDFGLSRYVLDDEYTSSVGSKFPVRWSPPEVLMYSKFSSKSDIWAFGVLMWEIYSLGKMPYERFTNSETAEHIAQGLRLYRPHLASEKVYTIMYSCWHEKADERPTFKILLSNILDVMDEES
Target sequence in this assay (Q96SW2 whole entry partner): as the sequence (Q96SW2 whole entry, looked up) above

A value given as a limit tells only on which side of the number the result lay.

Chain of Protein cereblon/Protein deacetylase HDAC6 (Homo sapiens, UniProt Q9UBN7+Q96SW2) (Q9UBN7 whole entry): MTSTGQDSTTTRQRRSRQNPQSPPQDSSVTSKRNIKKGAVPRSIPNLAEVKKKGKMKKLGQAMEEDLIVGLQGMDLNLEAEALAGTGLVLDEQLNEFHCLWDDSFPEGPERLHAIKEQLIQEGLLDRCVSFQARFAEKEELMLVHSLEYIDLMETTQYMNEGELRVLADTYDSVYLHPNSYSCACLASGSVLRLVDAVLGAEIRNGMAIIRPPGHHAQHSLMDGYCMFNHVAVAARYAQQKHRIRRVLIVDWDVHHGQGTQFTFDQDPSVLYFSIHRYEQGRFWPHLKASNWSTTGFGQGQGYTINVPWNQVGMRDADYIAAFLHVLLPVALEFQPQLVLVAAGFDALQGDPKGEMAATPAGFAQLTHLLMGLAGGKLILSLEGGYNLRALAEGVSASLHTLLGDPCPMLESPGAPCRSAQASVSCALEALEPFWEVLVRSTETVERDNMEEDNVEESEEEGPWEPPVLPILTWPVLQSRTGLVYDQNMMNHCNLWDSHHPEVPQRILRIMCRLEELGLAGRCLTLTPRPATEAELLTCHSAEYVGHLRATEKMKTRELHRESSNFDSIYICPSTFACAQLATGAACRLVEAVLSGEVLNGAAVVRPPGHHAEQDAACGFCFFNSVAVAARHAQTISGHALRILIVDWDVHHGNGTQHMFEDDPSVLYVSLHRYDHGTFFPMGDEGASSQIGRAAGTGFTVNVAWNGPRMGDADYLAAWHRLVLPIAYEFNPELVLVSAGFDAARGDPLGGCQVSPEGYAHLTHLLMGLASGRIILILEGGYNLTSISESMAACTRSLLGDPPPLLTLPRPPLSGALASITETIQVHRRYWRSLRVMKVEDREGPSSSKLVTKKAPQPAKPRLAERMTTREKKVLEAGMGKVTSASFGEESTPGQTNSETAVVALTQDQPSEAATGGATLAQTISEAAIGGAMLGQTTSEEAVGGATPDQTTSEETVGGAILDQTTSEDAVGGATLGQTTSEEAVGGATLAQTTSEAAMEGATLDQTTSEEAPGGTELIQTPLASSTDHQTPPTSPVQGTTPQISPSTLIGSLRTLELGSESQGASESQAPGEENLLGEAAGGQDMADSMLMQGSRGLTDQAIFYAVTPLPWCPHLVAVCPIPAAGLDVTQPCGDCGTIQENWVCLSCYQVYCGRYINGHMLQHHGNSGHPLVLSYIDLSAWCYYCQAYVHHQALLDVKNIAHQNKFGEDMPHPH
Chain of Protein cereblon/Protein deacetylase HDAC6 (Homo sapiens, UniProt Q9UBN7+Q96SW2) (Q96SW2 whole entry): as the sequence (Q96SW2 whole entry, looked up) above
Chain of RAC-alpha serine/threonine-protein kinase (P31749 whole entry): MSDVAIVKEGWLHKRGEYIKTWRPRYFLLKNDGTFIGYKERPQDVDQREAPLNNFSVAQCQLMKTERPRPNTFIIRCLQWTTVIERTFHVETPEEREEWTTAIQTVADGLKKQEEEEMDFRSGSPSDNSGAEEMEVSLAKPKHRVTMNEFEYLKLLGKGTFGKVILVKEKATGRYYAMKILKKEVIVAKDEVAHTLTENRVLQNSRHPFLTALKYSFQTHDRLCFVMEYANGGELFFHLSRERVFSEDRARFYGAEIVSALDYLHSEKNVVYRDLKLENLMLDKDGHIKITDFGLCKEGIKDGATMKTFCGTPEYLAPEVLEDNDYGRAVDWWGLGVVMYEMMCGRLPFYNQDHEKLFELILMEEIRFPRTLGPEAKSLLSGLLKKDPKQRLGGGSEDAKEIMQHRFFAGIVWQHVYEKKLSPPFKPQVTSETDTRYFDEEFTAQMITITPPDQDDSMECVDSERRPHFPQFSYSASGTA

`CCS(=O)(=O)Nc1ccc(Oc2ccc(F)cc2F)c(-c2cn(C)c(=O)c3[nH]c(C(=O)NCc4cn(CCOCC(=O)Nc5cccc6c5CN(C5CCC(=O)NC5=O)C6=O)nn4)cc23)c1` (stereo not drawn): the IC50 (in general, the concentration at which inhibition is half-maximal) in the experiment on BXPC-3 amounted to 165 nM.

Regarding `C[C@H]1[C@H](C)CC[C@]2(C(=O)NCCCCOCCNc3cccc4c3C(=O)N(C3CCC(=O)NC3=O)C4=O)CC[C@]3(C)C(=CC[C@@H]4[C@@]5(C)CC[C@H](O)C(C)(C)C5CC[C@]43C)[C@H]12` (stereo partly drawn), the IC50 with Huh-7, with HepG2 and with A549 was 230 nM each time.

In turn, `O=C(CCCCCCC(=O)N/N=C/c1ccc(OCCCC#Cc2cccc3c2CN(C2CCC(=O)NC2=O)C3=O)cc1)NO` (stereo not drawn) came in with a DC50 in experiment [1] of 1.9 nM.

Turning to `C[C@@H]1C[C@@H](O)c2ncnc(N3CCN(C(=O)[C@H](CNCCCCCCCCCCCc4cccc5c4CN(C4CCC(=O)NC4=O)C5=O)c4ccc(Cl)cc4)CC3)c21` (stereo partly drawn), the IC50 in [2] came to 3.5 nM; in experiment [3], 2 nM. `Nc1ncnc2c1c(-c1ccc(Oc3ccccc3)cc1)nn2[C@@H]1CCCN(CCOCCOCC(=O)Nc2ccc3c(c2)C(=O)N(C2CCC(=O)NC2=O)C3=O)C1` (stereo partly drawn): the DC50 was 14.6 nM in experiment [4] and 14.9 nM in [5]. In turn, `O=C1CCC(N2C(=O)c3cccc(NCCCCCOCCNC(=O)c4ccc(CN(CC5CCNCC5)Sc5ccc(S(=O)(=O)N(Cc6ccc(Cl)cc6)C6CCCC6)cc5)cc4)c3C2=O)C(=O)N1` (stereo not drawn) came in with an Activity in experiment [6] of 85%. Regarding `CCCCN(Cc1ccc(C(=O)NO)cc1)C(=O)Nc1ccc(NC(=O)CCCc2cn(CCOCCNc3cccc4c3C(=O)N(C3CCC(=O)NC3=O)C4=O)nn2)cc1` (stereo not drawn), in experiment [7], the half-maximal inhibitory concentration (IC50) was determined as 3.2 nM.

In the case of `COc1cc2nc(N3CCN(C(=O)c4ccco4)CC3)nc(N)c2cc1OC` [PRAZOSIN], the IC50 in the experiment with PC-3 was determined as 11700 nM. Consider `NC(=O)c1c(-c2ccc(Oc3ccc(F)cc3F)cc2)nn([C@@H]2CCCN(C(=O)COCCCCCCNc3cccc4c3C(=O)N(C3CCC(=O)NC3=O)C4=O)C2)c1N` (stereo partly drawn), for which, in experiment [8], the DC50 was found to be 5.9 nM. `CCCCN(Cc1ccc(C(=O)NO)cc1)C(=O)Nc1ccc(OCn2cc(CCCCCCCNCc3ccc(-c4cccc5c4CN(C4CCC(=O)NC4=O)C5=O)cc3)nn2)cc1` (stereo not drawn) yielded a DC50 in [1] of 1.5 nM. In the case of `O=C1CCC(N2C(=O)c3cccc(OCCCCCOc4ccc(CC(=O)Nc5cc(C6CCC6)[nH]n5)cc4)c3C2=O)C(=O)N1` (stereo not drawn), the Activity in experiment [9] stood at 65%. For `CC(C)(/C=C(\C#N)C(=O)N1CCC[C@@H](n2nc(-c3ccc(Oc4ccccc4)cc3)c3c(N)ncnc32)C1)CCCCCCCCOc1cccc2c1C(=O)N(C1CCC(=O)NC1=O)C2=O` (stereo partly drawn), the Emax (commonly the maximal effect, on the per cent scale that the assay sets) in experiment [10] was found to be 90%. This compound showed a DC50 in experiment [11] below 10 nM. Consider `CN(CCCNC(=O)CNc1cccc2c1C(=O)N(C1CCC(=O)NC1=O)C2=O)C(C)(C)/C=C(\C#N)C(=O)N1CCC[C@@H](n2nc(-c3ccc(Oc4ccccc4)cc3)c3c(N)ncnc32)C1` (stereo partly drawn), for which the Activity in [12] stood at 81%.

These data come from ChEMBL document CHEMBL5241095, “Developments of CRBN-based PROTACs as potential therapeutic agents” (Eur J Med Chem, 2021).
